28 compounds from paper PMC10572743 (International Journal of Molecular Sciences, 2023) can be followed below.

The subject of experiment [1] is TNF-α production in PBMC stimulated with LPS. Briefly: Inhibition of TNF-α production in PBMCs stimulated with LPS (ELISA). In kind it is cell-based. The settings on record: Homo sapiens, average of 2 independent experiments (donors), LPS 1 ng/mL, 24 h, read-out: IC50/μM (av.) PMBC-LPS/TNF-α. As to the method:
PBMC isolation. Human peripheral blood mononuclear cells (PBMCs) were isolated from buffy coats obtained from healthy adult volunteers. The buffy coats were diluted with sterile PBS and layered over Lymphoprep (Axis-Shield Diagnostics, Dundee, UK). Tubes were centrifuged for 35 min at 400× g (RT; acceleration and break turned off). After centrifugation, the mononuclear ring was collected, transferred into a new 50 mL tube, and washed thrice with sterile PBS. The remaining erythrocytes were lysed with an isotonic solution of ammonium chloride (150 mM; Kemika, Zagreb, Croatia).
Treatment and stimulation of human PBMCs. Immediately after isolation, 200,000 PBMCs were seeded per well of a 96-well plate. Compounds were dissolved in 100% dimethyl sulfoxide (DMSO, Sigma, Darmstadt, Germany), and serial dilutions in DMSO were prepared and added to cells, with starting concentration for test compounds 100 µM or 1 µM for reference dexamethasone. […] Plates were incubated for 24 h at 37 °C, 5% CO2, followed by the collection of supernatants for measurement of TNF-α and cell viability assessment.
Enzyme-linked immunosorbent assay (ELISA) and cytotoxicity analysis. TNFα concentration in PBMC supernatants was measured using ELISA assay, using antibodies obtained from BD Pharmingen (San Diego, CA, USA) and recombinant human TNFα protein (standard) from R&D Systems (Minneapolis, MN, USA). Lumitrac 600 384-well plates (Greiner Bio-One, Kremsmünster, Austria) were coated overnight with 1 µg/mL of TNFα capture antibody diluted in phosphate-buffered saline (PBS, Thermo Fisher Scientific, Waltham, MA, USA), followed by a washing step and blocking with 5% sucrose in assay diluent (1% bovine serum albumin (BSA; Sigma, Darmstadt, Germany) in PBS) for 4 h at RT. After the blocking step, the plates were washed, and samples/standards were added to the plates. After overnight incubation at 4 °C, detection antibodies diluted in assay diluent to a final concentration of 250 ng/mL were added. Following incubation for 2 h at RT, plates were washed, and streptavidin-HRP (Thermo Fisher Scientific, Waltham, MA, USA) solution was added (final concentration 500 ng/mL, prepared in assay diluent). Plates were incubated for 20 min at RT in the dark and washed, followed by adding Luminol substrate (Sigma, Darmstadt, Germany). […] To evaluate cell viability, Cell Titer Glo reagent was used (Promega, Madison, WI, USA) according to the manufacturer’s instructions.
Data analysis. For ELISA, the blank was subtracted from measured RLU values, and TNFα concentrations in samples were interpolated from the standard curve. QC parameters for each plate were calculated from raw data. […] For viability assessment, the average luminescence value was calculated from all trigger vehicle samples, and the percentage of vehicle value was calculated for all samples. The compound effect was considered cytotoxic if reduction from a vehicle was ≥20%, and these concentrations were excluded from further analysis. IC50 values of tested compounds were determined in GraphPad Prism 9 software using nonlinear regression curve fit (four parameters, with variable slope).
Background: ELISA stands for enzyme-linked immunosorbent assay.

The target in another experiment is BChE (Equus caballus, UniProt P81908). Briefly: biochemical. Format: biochemical. The settings on record: for inhibition at 250 µM / inhibition at 350 µM / inhibition at 500 µM: read-out: BChE % Inhibition.
Chain of BChE (P81908 whole entry): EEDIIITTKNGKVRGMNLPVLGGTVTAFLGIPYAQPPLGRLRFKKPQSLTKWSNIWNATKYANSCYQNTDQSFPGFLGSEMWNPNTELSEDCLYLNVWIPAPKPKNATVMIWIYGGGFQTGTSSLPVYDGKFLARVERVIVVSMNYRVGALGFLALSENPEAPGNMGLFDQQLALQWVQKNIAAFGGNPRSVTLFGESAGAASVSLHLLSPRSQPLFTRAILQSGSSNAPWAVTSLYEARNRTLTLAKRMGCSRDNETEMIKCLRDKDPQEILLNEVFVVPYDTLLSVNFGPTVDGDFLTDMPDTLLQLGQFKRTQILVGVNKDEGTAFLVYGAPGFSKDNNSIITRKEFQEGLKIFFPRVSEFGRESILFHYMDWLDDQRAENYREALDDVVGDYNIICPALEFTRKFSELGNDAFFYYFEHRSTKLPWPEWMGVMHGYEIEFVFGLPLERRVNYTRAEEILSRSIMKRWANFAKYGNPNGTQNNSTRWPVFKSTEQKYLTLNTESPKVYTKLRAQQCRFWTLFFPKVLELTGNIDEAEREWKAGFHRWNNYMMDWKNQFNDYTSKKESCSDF
The target of a further experiment is AChE (Electrophorus electricus, UniProt O42275). Kind of experiment: biochemical. In kind it is biochemical. The following applies: for inhibition at 250 µM: at maximal concentration tested 250 μM; for inhibition: at maximal concentration tested 350 μM; for inhibition at 500 µM: at maximal concentration tested 500 μM; for selectivity AChE over BChE: from IC50 values of Table 2.
Chain of AChE (O42275 24-633): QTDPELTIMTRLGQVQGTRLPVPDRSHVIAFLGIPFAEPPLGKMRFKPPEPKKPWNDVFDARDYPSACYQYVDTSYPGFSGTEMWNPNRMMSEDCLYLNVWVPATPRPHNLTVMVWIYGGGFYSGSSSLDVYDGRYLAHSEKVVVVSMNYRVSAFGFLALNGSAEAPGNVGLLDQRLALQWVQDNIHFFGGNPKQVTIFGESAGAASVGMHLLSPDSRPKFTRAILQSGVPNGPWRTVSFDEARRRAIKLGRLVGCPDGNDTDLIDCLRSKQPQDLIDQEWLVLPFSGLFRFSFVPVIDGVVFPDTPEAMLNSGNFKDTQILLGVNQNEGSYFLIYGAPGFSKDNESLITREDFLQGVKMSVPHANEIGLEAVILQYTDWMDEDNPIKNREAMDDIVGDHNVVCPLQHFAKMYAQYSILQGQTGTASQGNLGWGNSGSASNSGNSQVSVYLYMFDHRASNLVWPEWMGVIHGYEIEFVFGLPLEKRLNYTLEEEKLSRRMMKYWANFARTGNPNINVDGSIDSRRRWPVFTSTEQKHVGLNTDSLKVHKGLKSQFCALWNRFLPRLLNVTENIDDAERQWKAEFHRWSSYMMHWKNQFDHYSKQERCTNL

The inhibition is the percentage by which the read-out fell short of the control.

Turning to `Fc1ccc(Cn2nnc3ccc4sccc4c32)cc1` [Compound 18], in experiment [1], the IC50 came to 27.7 µM.
Regarding `C=CCCCn1nnc2ccc3sccc3c21` [Compound 13, 1-(pent-4-en-1-yl)-1H-thieno[3′,2′:3,4]benzo[1,2-d][1–3]triazole], the IC50 at BChE came out at 40.7 µM; in experiment [1], 21.3 µM. Besides, the “selectivity BChE over AChE” value on BChE (from IC50 values of Table 2) was “selective inhibition for BChE”. Further, the inhibition at 250 µM at BChE amounted to 86.5 ± 5%; against AChE, 46.4 ± 2.5%.
For the compound `COc1ccc(Cn2nnc3ccc4sc(C)cc4c32)cc1` [Compound 10, 1-(4-methoxybenzyl)-7-methyl-1H-thieno[3′,2′:3,4]benzo[1,2-d][1–3]triazole], the figures for the IC50 (at BChE; against AChE; in experiment [1]) were 99.7 µM, 66.6 µM and 19.2 µM, respectively. The inhibition at 350 µM at BChE is 65.2 ± 0.3%. Besides, the inhibition at AChE was found to be 83.6 ± 3.7%.
As to `OCCCCn1nnc2ccc3sccc3c21` [Compound 14], the IC50 in experiment [1] turned out to be 38.8 µM.
Still for that read-out and setting: in the case of `CC(C)c1nc2ccc3sccc3c2s1` [Compound 28] it was more than 100 µM; in that of `C[C@@H]1C[C@H]2[C@@H]3CCC4=CC(=O)C=C[C@]4(C)[C@@]3(F)[C@@H](O)C[C@]2(C)[C@@]1(O)C(=O)CO` [dexamethasone, reference compound], 0.007 µM.
Consider `COc1ccc2ccc3nnn(Cc4cccs4)c3c2c1` [Compound 7, 8-methoxy-1-(thiophen-2-ylmethyl)-1H-naphtho[1,2-d][1–3]triazole], for which the IC50 at BChE is 294 µM; at AChE, 110 µM; in experiment [1], more than 100 µM. The inhibition at 500 µM stood at 60.9 ± 0.4% on BChE and 81.4 ± 0.8% at AChE.
As to `CCOC(=O)CCn1nnc2ccc3sccc3c21` [Compound 17], the IC50 in experiment [1] was more than 100 µM.
As for `C=CCn1nnc2ccc3sc(C)cc3c21` [Compound 8, 1-allyl-7-methyl-1H-thieno[3′,2′:3,4]benzo[1,2-d][1–3]triazole], on BChE, the IC50 amounted to 206 µM and the inhibition at 350 µM turned out to be 62.6 ± 0.2%. Besides, the inhibition on AChE came out at 43.5 ± 2.1%. The IC50 in experiment [1] was more than 100 µM.
As to `COc1ccc(CCn2nnc3ccc4sccc4c32)cc1` [Compound 21], in experiment [1], the IC50 is 17 µM.
Consider `Cc1cc2c(ccc3nnn(Cc4ccco4)c32)s1` [Compound 12, 1-(furan-2-ylmethyl)-7-methyl-1H-thieno[3′,2′:3,4]benzo[1,2-d][1–3]triazole], for which the inhibition at 350 µM on BChE is 46.1%. In addition, the inhibition against AChE was found to be 41.8 ± 1%. Moreover, the IC50 in experiment [1] came to 40.6 µM.
Take `c1cc2c(s1)CCc1nnn(CCCN3CCOCC3)c1-2` [Compound 25]: in experiment [1], the IC50 is more than 100 µM.
Same read-out and setting: with `c1csc(Cn2nnc3ccc4sccc4c32)c1` [Compound 22] the figure was 16.1 µM.
As to `CC(=O)Nc1nc2c(ccc3sccc32)s1` [Compound 31], the IC50 in experiment [1] was more than 100 µM.
Same read-out and setting: in the case of `FC(F)(F)c1nc2c(ccc3sccc32)s1` [Compound 30] it was more than 100 µM.
Regarding `COc1ccc2ccc3nnn(Cc4ccc(F)cc4)c3c2c1` [Compound 4, 1-(4-fluorobenzyl)-8-methoxy-1H-naphtho[1,2-d][1–3]triazole], the values for the inhibition at 500 µM on BChE and against AChE were 25 ± 0.5% and 35.1 ± 2%, respectively. Moreover, the IC50 in experiment [1] came to 19.1 µM.
In the case of `C=CCCCn1nnc2ccc3ccc(OC)cc3c21` [Compound 3, 8-methoxy-1-(pent-4-en-1-yl)-1H-naphtho[1,2-d][1–3]triazole], the IC50 is 53.5 µM at BChE, 51.3 µM against AChE and 12 µM in experiment [1]. Further, the results for the inhibition at 250 µM at BChE and on AChE were 76.6 ± 1.8% and 64.8 ± 5.3%, respectively.
Turning to `Cc1nc2c(ccc3sccc32)s1` [Compound 27], the IC50 in experiment [1] was 12.2 µM.
For `Cc1cc2c(ccc3nnn(Cc4ccc(F)cc4)c32)s1` [Compound 9, 1-(4-fluorobenzyl)-7-methyl-1H-thieno[3′,2′:3,4]benzo[1,2-d][1–3]triazole], the IC50 is 69.8 µM against BChE, 83 µM against AChE and more than 100 µM in experiment [1]. Also, the inhibition at 350 µM at BChE was determined as 76.1 ± 0.8%. Also, on AChE, the inhibition amounted to 78.8 ± 1.9%.
In the case of `C=CCCn1nnc2ccc3ccc(OC)cc3c21` [Compound 2, 1-(but-3-en-1-yl)-8-methoxy-1H-naphtho[1,2-d][1–3]triazole], the IC50 was found to be 110 µM against BChE, 91.8 µM against AChE and 10.4 µM in experiment [1]. Further, the inhibition at 500 µM at BChE came to 80.2 ± 0.7%; against AChE, 77.9 ± 3.6%.
In the case of `OCCCCn1nnc2c1-c1ccsc1CC2` [Compound 23], in experiment [1], the IC50 is more than 100 µM.
On the same count and under the same terms, with `c1cc2c(ccc3nnn(CCCN4CCOCC4)c32)s1` [Compound 16] the figure was more than 100 µM; with `Clc1nc2c(ccc3sccc32)s1` [Compound 29], more than 100 µM.
Regarding `COc1cccc(Cn2nnc3ccc4ccc(OC)cc4c32)c1` [Compound 6, 8-methoxy-1-(3-methoxybenzyl)-1H-naphtho[1,2-d][1–3]triazole], the inhibition at 250 µM at BChE came to 47.8 ± 0.5%; on AChE, 78.6 ± 3.8%. Further, the IC50 was 177 µM at AChE and 1.9 µM in experiment [1]. Besides, the “selectivity AChE over BChE” value at AChE is recorded as “Selective inhibition toward AChE”.
As for `c1cc2c(s1)CCc1nnn(CCN3CCOCC3)c1-2` [Compound 24], the IC50 in experiment [1] was more than 100 µM.
On to `COc1ccc2ccc3nnn(C(C)C)c3c2c1` [Compound 1, 1-isopropyl-8-methoxy-1H-naphtho[1,2-d][1–3]triazole], for which the IC50 against BChE was determined as 261 µM; against AChE it was 329 µM; in experiment [1] it was 8.1 µM. Also, the figures for the inhibition at 500 µM on BChE and at AChE were 65.3 ± 0.7% and 58.1 ± 1.6%, respectively.
For `Cc1cc2c(ccc3nnn(Cc4cccs4)c32)s1` [Compound 11, 7-methyl-1-(thiophen-2-ylmethyl)-1H-thieno[3′,2′:3,4]benzo[1,2-d][1–3]triazole], the results for the IC50 (at BChE; against AChE; in experiment [1]) were 123 µM, 218 µM and 38.7 µM, respectively. Besides, the inhibition at 350 µM at BChE is 72.3 ± 5.6%. For the same compound, the inhibition on AChE came to 71.3 ± 0.3%.
As to `COc1ccc2ccc3nnn(Cc4cccc(F)c4)c3c2c1` [Compound 5, 1-(3-fluorobenzyl)-8-methoxy-1H-naphtho[1,2-d][1–3]triazole], the inhibition at 250 µM at BChE was determined as 43.8 ± 1.8%. For the same compound, at AChE, the IC50 stood at 55.5 µM, the inhibition at 250 µM was 80.8 ± 1.8% and the “selectivity AChE over BChE” value is reported as “Selective inhibition toward AChE”. Besides, the IC50 in experiment [1] was more than 100 µM.
